The numbers were not newly measured in patent publication US4096052A, “Electrochemical hydroxylation of certain aromatic compounds” (priority 1977, dated 1978), which cites them from elsewhere.

The structures appear in SMILES notation. Read-outs that look alike come from different tables or passages of the source.

Where [1] appears, read: Table II (comparison acids), H2O, 25° C.

On to `O=C(O)C(Cl)(Cl)Cl` [trichloroacetic, trichloroacetic acid], for which, for the setting “Table I, H2O, 25° C”, the “Ka (H2 O) at 25° C” value is 2 × 10^-1 and the “pKa (H2 O) at 25° C” value is reported as 0.70.
Turning to `CC(Cl)C(=O)O` (stereo not drawn) [α-chloropropionic], for the setting “Table I, H2O, 25° C”, the “Ka (H2 O) at 25° C” value is reported as 1.47 × 10^-3 and the “pKa (H2 O) at 25° C” value was 2.83.
Consider `O=C(O)c1ccccc1[N+](=O)[O-]` [o-nitrobenzoic, o-nitrobenzoic acid], for which the “Ka (H2 O)” value (Table I, H2O, 18° C) is 6.95 × 10^-3. For the same compound, for the setting “water”, the “pKa (H2 O)” value is 2.16.
Take `CC(Cl)CC(=O)O` (stereo not drawn) [β-chlorobutyric]: under setting [1], the “Ka (H2 O) at 25° C” value is reported as 8.9 × 10^-5 and the “pKa (H2 O) at 25° C” value is 4.05.
Take `O=C(O)Cc1ccccc1` [phenylacetic]: under “Table II, H2O, 18° C”, the “Ka (H2 O)” value is 5.2 and the “pKa (H2 O)” value is on record as 4.28.
In the case of `N#CCC(=O)O` [cyanoacetic, cyanoacetic acid], the “Ka (H2 O) at 25° C” value (Table I, H2O, 25° C) is 3.65 × 10^-3. Also, the “pKa (H2 O) at 25° C” value (water) is listed as 2.41.
With `O=C(O)C(F)(F)F` [trifluoroacetic, trifluoroacetic acid], the “dissociation in aqueous solution (Table I footnote in place of Ka)” value (Table I footnote, H2O, 25° C) was “completely dissociated in aqueous solution”. For the same compound, the “pKa (H2 O) at 25° C” value (Table I, H2O, 25° C) is given as 0.
In the case of `C=CCC(=O)O` [vinylacetic], the “pKa (H2 O) at 25° C” value (water) is 4.34.
Consider `CCCCC(=O)O` [n-valeric], for which the “Ka (H2 O) at 25° C” value under setting [1] is given as 1.5 × 10^-5.
Turning to `O=C(O)CCl` [chloroacetic, chloroacetic acid], the “Ka (H2 O) at 25° C” value (Table I, H2O, 25° C) is listed as 1.4 × 10^-3.
As for `CCC(=O)O` [propionic], the “Ka (H2 O) at 25° C” value under setting [1] is reported as 1.34 × 10^-5.
In the case of `CCC(Cl)C(=O)O` (stereo not drawn) [α-chlorobutyric], where the note is “Table I, H2O, 25° C”, the “Ka (H2 O) at 25° C” value is reported as 1.39 × 10^-3 and the “pKa (H2 O) at 25° C” value is reported as 2.86.
Turning to `O=C(O)C(Cl)Cl` [dichloroacetic], the “Ka (H2 O) at 25° C” value (Table I, H2O, 25° C) is reported as 3.32 × 10^-2.
`O=C(O)CBr` [bromoacetic]: the “Ka (H2 O) at 25° C” value (Table I, H2O, 25° C) is 2.05 × 10^-3.
Take `O=C(O)CCCl` [β-chloropropionic]: under setting [1], the “Ka (H2 O) at 25° C” value was 1.04 × 10^-4 and the “pKa (H2 O) at 25° C” value is given as 3.98.
